Common to all, as to assay type: cell-based
Series [1] has as its system Plasmodium falciparum rings and trophozoites/schizonts. Put plainly: Stage-specific profiling using synchronized cultures. The settings on record: highest concentration tested, 24 h exposure, read 24 h after postexposure wash. The method, then:
Parasite cultures with ≥80% trophozoites and ≥80% rings were obtained by synchronization with 5% sorbitol ([42]). The cultures were synchronized twice, at 0 h and 31 h, to obtain young rings which were up to 3 h old. To obtain early schizont stages, the cultures were synchronized twice, with the second synchronization being 6 to 8 h after the first. […] The plates were washed 4 times after the incubation in order to dilute the drug concentration by >1,000-fold. The plates were incubated for another 24 h at 37°C, following which SYBR green staining was used to read the plates as described above.

A further series has as its system HepG2 cells. Put plainly: MTT assay for cell cytotoxicity against HepG2 cells. The settings on record: for LD50 (50% lethal dose), MTT assay: HepG2 cells, 48 h, ± SD. The method, then: HepG2 cells (University of Salford stocks, purchased from American Type Culture Collection [ATCC], USA), were grown in medium consisting of RPMI 1640, 2 mM L-glutamine, HEPES, 10% fetal bovine serum, 1% nonessential amino acids, and 1% penicillin-streptomycin. Cells were calculated on a hemocytometer to make a new cell-medium solution to a concentration of 5,000 cells/100 μl, and 100 μl of this new cell solution was added into each well of the 96-well plate. After 24 h of incubation, 100-μl amounts of the drug prepared in the medium were added to the wells. This was repeated in triplicate, and the plate was incubated for a further 48 h ([56]). After the incubation period, 50 μl of MTT solution was added to each well and incubated for 3 h. The liquid in each well was aspirated carefully, 200 μl of DMSO was added to each well, and the results were read on the Ascent plate reader.
A general note: Tetrazolium assays rely on reduction of a dye to a coloured formazan, in cell work by metabolically active cells.

Series [2] concerns P. falciparum strain 3D7A. Nature of the series: 3H-hypoxanthine incorporation assay, strain 3D7A. The settings on record: Plasmodium falciparum, read-out: IC50 (μM) 3D7A. The method, then:
The cross-resistance assay used relies on the parasites’ incorporation of labeled 3H-hypoxanthine, which is proportional to P. falciparum growth. In vitro cross-resistance of the compounds is measured as the ratio between the IC50 for the tested P. falciparum strain and the IC50 for strain 3D7A. Every replicate from a multidrug-resistant (MDR) strain involved a simultaneous determination using a 3D7A replicate to avoid any artifact linked to experimental conditions.
The three strains used for the cross-resistance assay were 3D7A, Dd2, and W2, based on their resistance profiles; the assay was carried out by GSK, Tres Cantos. Strain 3D7A is chloroquine sensitive, strain Dd2 is resistant to chloroquine, mefloquine, and pyrimethamine ([57]), and strain W2 is resistant to chloroquine, quinine, pyrimethamine, cycloguanil, and sulfadoxine (from the Malaria Research and Reference Reagent Resource Center [MR4]) ([58]). A culture of red blood cells (RBCs) parasitized by the corresponding strain (0.5% parasitemia, 2% hematocrit) in RPMI 1640, […], and 5 μM hypoxanthine was exposed to 9 dilutions (3-fold serial dilutions) of the compound starting at 5 μM. One hundred microliters of culture volume was plated in 96-well flat-bottom microtiter plates with 0.5 μl drug (200× stock in DMSO). Plates were incubated for 24 h at 37°C, 5% CO2, 5% O2, 90% N2. Next, 3H-hypoxanthine was added and plates were incubated for another 24-h period. After that, parasites were harvested on a glass fiber filter using a TomTec cell harvester 96. Filters were dried, and melt-on scintillator sheets were used to determine the incorporation of 3H-hypoxanthine. Radioactivity was measured using a MicroBeta counter. […] IC50 values were determined using the Grafit 7 program ([41]).

In a further series the target is T1, hERG potassium channel (Homo sapiens, UniProt Q12809).
T1 construct: host or cells: Chinese hamster ovary (CHO) cells
T1 sequence (Q12809 whole entry): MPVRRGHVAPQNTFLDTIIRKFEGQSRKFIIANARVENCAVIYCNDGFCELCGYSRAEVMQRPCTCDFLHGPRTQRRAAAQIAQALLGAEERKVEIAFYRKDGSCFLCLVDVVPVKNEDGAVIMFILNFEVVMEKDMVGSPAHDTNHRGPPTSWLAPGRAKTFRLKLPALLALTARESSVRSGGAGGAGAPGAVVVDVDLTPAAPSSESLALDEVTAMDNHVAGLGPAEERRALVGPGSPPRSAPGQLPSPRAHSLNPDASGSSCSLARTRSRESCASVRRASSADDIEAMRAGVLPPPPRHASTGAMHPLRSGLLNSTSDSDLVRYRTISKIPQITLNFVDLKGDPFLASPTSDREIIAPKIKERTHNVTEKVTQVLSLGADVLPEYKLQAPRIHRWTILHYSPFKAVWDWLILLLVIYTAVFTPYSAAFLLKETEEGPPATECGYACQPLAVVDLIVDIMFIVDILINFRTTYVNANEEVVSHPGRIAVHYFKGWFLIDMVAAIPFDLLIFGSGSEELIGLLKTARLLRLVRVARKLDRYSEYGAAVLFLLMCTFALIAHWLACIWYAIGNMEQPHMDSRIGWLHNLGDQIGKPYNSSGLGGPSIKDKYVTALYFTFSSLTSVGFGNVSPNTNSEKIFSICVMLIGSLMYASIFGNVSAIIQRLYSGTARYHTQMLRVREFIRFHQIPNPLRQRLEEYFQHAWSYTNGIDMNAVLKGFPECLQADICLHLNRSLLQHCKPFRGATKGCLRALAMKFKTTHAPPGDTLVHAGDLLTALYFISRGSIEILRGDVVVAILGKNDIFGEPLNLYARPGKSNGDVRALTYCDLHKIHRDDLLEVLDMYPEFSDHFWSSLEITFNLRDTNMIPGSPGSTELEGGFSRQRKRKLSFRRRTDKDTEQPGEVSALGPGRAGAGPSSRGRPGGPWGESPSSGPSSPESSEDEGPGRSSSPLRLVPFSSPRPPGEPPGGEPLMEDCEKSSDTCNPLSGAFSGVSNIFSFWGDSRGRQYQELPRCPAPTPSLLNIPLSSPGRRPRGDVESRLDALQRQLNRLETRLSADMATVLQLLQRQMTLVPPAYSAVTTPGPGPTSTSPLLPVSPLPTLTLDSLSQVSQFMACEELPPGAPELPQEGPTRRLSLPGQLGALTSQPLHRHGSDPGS
Nature of the series: hERG channel inhibition assay (CHO cells, whole-cell voltage clamp, Cyprotex). The settings on record: for selectivity ratio at 300 s / inhibition at 300 s, 0.016 µM / inhibition at 300 s, 0.08 µM / inhibition at 300 s, 0.4 µM / inhibition at 300 s, 2 µM / inhibition at 300 s, 10 µM / inhibition at 300 s, 50 µM: human; for selectivity ratio at 300 s: CHO cells expressing the hERG potassium channel, read-out: Selectivity index, IC50 hERG/IC50 parasites. Here is the method: For each replicate, the hERG response was calculated using the following equation: % hERG response = post-compound-application current (nA)/pre-compound-application current (nA) × 100.
The experiment to test the potential of emetine, (−)-R,S-dehydroemetine, and (−)-S,S-dehydroisoemetine to inhibit the hERG channel was outsourced to Cyprotex, UK. One-hundred-microliter amounts of a 20 mM concentration of each of the three compounds in DMSO was provided to Cyprotex. […] Chinese Hamster ovary cells expressing the hERG potassium channel were dispensed into 384-well planar arrays, and hERG tail currents were measured by whole-cell voltage clamping. Amphotericin B was used as a perforating agent that was circulated underneath the PatchPlate to gain electrical access to the cell. The pre-compound-application hERG current was measured. Emetine, (−)-R,S-dehydroemetine, and (−)-S,S-dehydroisoemetine in ranges of concentrations were then added to the cells, and a second recording of the hERG current was made. The test compound was left in contact with the cells for 300 s before currents were recorded. […] All buffers, cell suspensions, and drug compound solutions were at room temperature. The percentage of change in hERG current was measured and used to calculate an IC50 value.
Each concentration was tested in 4 replicate wells on the PatchPlate (maximum of 24 data points). Filters were applied to ensure that only acceptable cells were used to assess hERG inhibition.
On the technique in general: hERG is a cardiac potassium channel; its block is linked to QT prolongation.

Counter-ions that a name gives are not always drawn.

In general, IC50 refers to the concentration that gives 50% inhibition. A word on the inhibition: it is the percentage by which the read-out fell short of the control. Read a low inhibition as a weak effect. Consider `CCC1=C(C[C@H]2NCCc3cc(OC)c(OC)cc32)C[C@H]2c3cc(OC)c(OC)cc3CCN2C1` [(−)-R,S-dehydroemetine, (S)-2-((R)-6,7-dimethoxy-1,2,3,4-tetrahydro-isoquinolin-1-ylmethyl)-3-ethyl-9,10-dimethoxy-1,6,7,11b-tetrahydro-4H-pyrido[2,1-a]isoquinoline * dihydrobromide], for which, in series [1] (8500 (nM per legend)), the “Parasitaemia (percentage) Rings” value was found to be 50.21% and the “Parasitaemia (percentage) Trophozoites” value is reported as 19.75%. Moreover, in the series on HepG2 cells, the “Selectivity index, LD50 HepG2 cells/IC50 parasites” value came to 2.37 and the “LD50 (50% lethal dose), MTT assay” value is reported as 168.07 ± 8.65 nM. Also, the IC50 in series [2] came out at 0.146 µM. Moreover, on hERG potassium channel, the IC50 was found to be 19300 nM; the “hERG channel inhibition (in words)” value is “not an hERG channel inhibitor”; the selectivity ratio at 300 s was above 271; the inhibition at 300 s, 0.016 µM is 7.79%. On hERG potassium channel, this compound had an inhibition at 300 s, 0.08 µM of 6.34%; an inhibition at 300 s, 0.4 µM of 12.7%; an inhibition at 300 s, 2 µM of 7.21%; an inhibition at 300 s, 10 µM of 39.4%. The same compound showed an inhibition at 300 s, 50 µM at hERG potassium channel of 61.4%.

`CCC1=C(C[C@@H]2NCCc3cc(OC)c(OC)cc32)C[C@H]2c3cc(OC)c(OC)cc3CCN2C1` [(−)-S,S-dehydroisoemetine, (S)-2-((S)-6,7-dimethoxy-1,2,3,4-tetrahydro-isoquinolin-1-ylmethyl)-3-ethyl-9,10-dimethoxy-1,6,7,11b-tetrahydro-4H-pyrido[2,1-a]isoquinoline * dihydrobromide]: in series [1] (200 (μM per legend)), the “Parasitaemia (percentage) Rings” value was 70.98% and the “Parasitaemia (percentage) Trophozoites” value was determined as 24.67%. Besides, in the series on HepG2 cells, the “Selectivity index, LD50 HepG2 cells/IC50 parasites” value was determined as 0.69 and the “LD50 (50% lethal dose), MTT assay” value is 1429 ± 180 nM. Moreover, the IC50 in series [2] worked out at 1.03 µM. On hERG potassium channel, 2990 nM corresponded to half-maximal inhibition (IC50); the “hERG channel inhibition (in words)” value was “potent inhibitor”; the selectivity ratio at 300 s was 1.48; the inhibition at 300 s, 0.016 µM amounted to 8.13%. In addition, at hERG potassium channel, the inhibition at 300 s, 0.08 µM came to 4.61%; the inhibition at 300 s, 0.4 µM was 9.33%; the inhibition at 300 s, 2 µM came out at 36%; the inhibition at 300 s, 10 µM was 70.7%. Moreover, on hERG potassium channel, the inhibition at 300 s, 50 µM was 96.9%.

Source of the values: PMC7179302, “Lead Optimization of Dehydroemetine for Repositioned Use in Malaria” (Antimicrobial Agents and Chemotherapy, 2020).
